Results from patent publication US20260137706A1, “METHODS OF TREATING INFLAMMATORY DISEASES” (INTERLINE THERAPEUTICS, INC., priority 2023, published 2026).

Key:
[1] = biological target: T1, GST-RIPK2 fusion protein (human RIPK2, amino acids 1-310) (Homo sapiens, UniProt O43353); test: RIPK2 binding competition assay (TR-FRET, Tracer 199 displacement); conditions: 10 nM Tracer 199, 1 nM GST-RIPK2, read-out: RIPK2 IC50
T1 construct: made in house; host or cells: baculovirus infected Sf9 cells
In short: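 IC50 derived from the TR-FRET emission ratio (665/620 nm, 337 nm excitation), normalized with no-inhibitor and no-enzyme controls. Incubation 45 min at 22 °C, pH 7.5 Tris buffer, with final 10 nM tracer, 1 nM Sf9-expressed GST-RIPK2 fragment (aa 1-310) and 0.5 nM Tb-labelled anti-GST.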

[2] = biological target: T2, binding of His-XIAP(BIR2)-avi fusion protein to GST-RIPK2 fusion protein (RIPK2/XIAP) (Homo sapiens, UniProt O43353); test: RIPK2-XIAP binding competition PPI assay (TR-FRET); conditions: RIPK2/XIAP binding competition PPI assay; for Emax: Amax, read-out: PPI Amax bin; for IC50: read-out: PPI IC50 bin
T2 construct: made in house; host or cells: baculovirus infected Sf9 cells
In short: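 Compounds (in DMSO, 100-fold stock) incubated 120 min at 23 °C with 1 nM GST-RIPK2 (aa 1-310) and 25 nM His-XIAP(BIR2 aa 152-231)-avi, plus anti-His-XL665 and anti-GST-Tb, in pH 7.5 Tris buffer. Read-out: 665/520 nm emission ratio. Normalized to no-inhibitor (0%) and 50 nM GSK583 (−100%); Amax binned A–D.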

[3] = system: NF-κB pathway (SEAP) in THP1-Dual cells; test: THP-1 Dual cell SEAP assay (L18-MDP stimulated); type: cell-based; conditions: Homo sapiens, THP1-Dual, read-out: NF-κB THP1 IC50 bin
In short: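 IC50 values derive from non-linear regression of % inhibition, calculated against DMSO/L18-MDP-treated wells after media-only subtraction. NF-κB SEAP activity was read at OD 620-655 nm (QUANTI-Blue, 2 h, 37 °C) from supernatants of THP1-Dual cells. Cells had been compound-treated 30 min before overnight (20-24 h) stimulation with 10 ng/mL final L18-MDP.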

T1 sequence (O43353 1-310): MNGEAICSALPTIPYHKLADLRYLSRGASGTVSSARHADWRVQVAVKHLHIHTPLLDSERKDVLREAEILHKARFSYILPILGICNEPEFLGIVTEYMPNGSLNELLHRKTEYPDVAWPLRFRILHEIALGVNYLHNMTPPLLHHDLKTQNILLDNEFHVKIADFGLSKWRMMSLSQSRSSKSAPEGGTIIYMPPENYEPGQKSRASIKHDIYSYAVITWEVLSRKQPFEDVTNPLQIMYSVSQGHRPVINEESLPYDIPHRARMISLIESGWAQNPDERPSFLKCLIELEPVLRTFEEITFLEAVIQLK
T2 sequence (O43353 1-310 limits assumed): as the sequence (O43353 1-310) above

Compound	IC50 [1] [nM]	Emax [2] [%]	IC50 [2] [nM]	IC50 [3] [nM]
CC(C)(C)S(=O)(=O)c1cn2c(-c3ccc4[nH]ccc4n3)cnc2cc1OCCO [Example 278, 2-((6-(tert-butylsulfonyl)-3-(1H-pyrrolo[3,2-b]pyridin-5-yl)imidazo[1,2-a]pyridin-7-yl)oxy)ethan-1-ol]	> 20	30 to 55	2.5 to 20	> 1000
C[C@H](CO)COc1cc2ncc(-c3cc4cc[nH]c4nc3F)n2cc1S(=O)(=O)C(C)(C)C [Example 228, (R)-3-((6-(tert-butylsulfonyl)-3-(6-fluoro-1H-pyrrolo[2,3-b]pyridin-5-yl)imidazo[1,2-a]pyridin-7-yl)oxy)-2-methylpropan-1-ol]	< 1	> 80	< 1	< 50
COc1cc2ncc(-c3cc(F)c(N)nc3F)n2cc1S(=O)(=O)C(C)(C)CCCO [Example 63, 4-((3-(6-amino-2,5-difluoropyridin-3-yl)-7-methoxyimidazo[1,2-a]pyridin-6-yl)sulfonyl)-4-methylpentan-1-ol]	2.5 to 20	> 80	2.5 to 20	> 1000
COc1ccn2ncc(-c3cc(N)cc(F)c3)c2n1 [Example 80, 3-fluoro-5-(5-methoxypyrazolo[1,5-a]pyrimidin-3-yl)aniline]	> 20	< 30	> 20	> 1000
COc1cc2ncc(-c3cc(F)c(OC)c4c3cnn4CCO)n2cc1S(=O)(=O)C(C)(C)C [Example 121, 2-(4-(6-(tert-butylsulfonyl)-7-methoxyimidazo[1,2-a]pyridin-3-yl)-6-fluoro-7-methoxy-1H-indazol-1-yl)ethan-1-ol]	> 20	55 to 80	> 20	> 1000
CC(C)(C)S(=O)(=O)c1cc2c(-c3cc(Cl)c(N)nc3F)cnn2cc1OCCO [Example 15, 2-((3-(6-amino-5-chloro-2-fluoropyridin-3-yl)-5-(tert-butylsulfonyl)pyrazolo[1,5-a]pyridin-6-yl)oxy)ethan-1-ol]	1 to 2.5	> 80	1 to 2.5	50 to 250
Cc1nc(N)c(F)cc1-c1cnc2cc(OCCO)c(S(=O)(=O)C(C)(C)C)cn12 [Example 51, 2-((3-(6-amino-5-fluoro-2-methylpyridin-3-yl)-6-(tert-butylsulfonyl)imidazo[1,2-a]pyridin-7-yl)oxy)ethan-1-ol]	> 20	< 30	> 20	> 1000
COc1cc2ncc(-c3ccc4cnn(C)c4c3)n2cc1S(=O)(=O)C(C)(C)C [Example 106, 6-(6-(tert-butylsulfonyl)-7-methoxyimidazo[1,2-a]pyridin-3-yl)-1-methyl-1H-indazole]	> 20	< 30	> 20	> 1000
CC(C)(C)S(=O)(=O)c1cn2c(-c3cc(Cl)c(N)nc3F)cnc2cc1CCCO [Example 257, 3-(3-(6-amino-5-chloro-2-fluoropyridin-3-yl)-6-(tert-butylsulfonyl)imidazo [1,2-a]pyridin-7-yl)propan-1-ol]	2.5 to 20	> 80	2.5 to 20	250 to 1000
COc1cc2ncc(-c3ccc(N)nc3F)n2cc1S(=O)(=O)C1CC1 [Example 66, 5-(6-(cyclopropylsulfonyl)-7-methoxyimidazo[1,2-a]pyridin-3-yl)-6-fluoropyridin-2-amine]	> 20	> 80	> 20	> 1000
COc1cc2ncc(-c3cccc(NS(=O)(=O)C4CCOCC4)c3)n2cc1S(=O)(=O)C(C)(C)C [Example 147, N-(3-(6-(tert-butylsulfonyl)-7-methoxyimidazo[1,2-a]pyridin-3-yl)phenyl)tetrahydro-2H-pyran-4-sulfonamide]	2.5 to 20	> 80	2.5 to 20	250 to 1000
COc1cc2ncc(-c3cccc(NS(=O)(=O)C4(CO)CC4)c3)n2cc1S(=O)(=O)C(C)(C)C [Example 179, N-(3-(6-(tert-butylsulfonyl)-7-methoxyimidazo[1,2-a]pyridin-3-yl)phenyl)-1-(hydroxymethyl)cyclopropane-1-sulfonamide]	2.5 to 20	55 to 80	2.5 to 20	> 1000
COc1cc2ncc(-c3cccc(NS(=O)(=O)CC4CC4)c3)n2cc1S(=O)(=O)C(C)(C)C [Example 151, N-(3-(6-(tert-butylsulfonyl)-7-methoxyimidazo[1,2-a]pyridin-3-yl)phenyl)-1-cyclopropylmethanesulfonamide]	1 to 2.5	> 80	1 to 2.5	250 to 1000
COc1cc2ncc(-c3cccc(NS(=O)(=O)C4(C)CC4)c3)n2cc1S(=O)(=O)C(C)(C)C [Example 149, N-(3-(6-(tert-butylsulfonyl)-7-methoxyimidazo[1,2-a]pyridin-3-yl)phenyl)-1-methylcyclopropane-1-sulfonamide]	2.5 to 20	> 80	2.5 to 20	> 1000
C[C@H](CO)COc1cn2ncc(-c3cc(F)c(N)nc3F)c2cc1S(=O)(=O)C(C)(C)C [Example 195, (R)-3-((3-(6-amino-2,5-difluoropyridin-3-yl)-5-(tert-butylsulfonyl)pyrazolo [1,5-a]pyridin-6-yl)oxy)-2-methylpropan-1-ol]	< 1	> 80	< 1	< 50
CCS(=O)(=O)Nc1cc(-c2cnc3cc(OC)c(S(=O)(=O)C(C)(C)CO)cn23)cc(Cl)c1OC [Example 128, N-(3-chloro-5-(6-((1-hydroxy-2-methylpropan-2-yl)sulfonyl)-7-methoxyimidazo[1,2-a]pyridin-3-yl)-2-methoxyphenyl)ethanesulfonamide]	1 to 2.5	55 to 80	1 to 2.5	50 to 250
CN(C)C(=O)c1cc2ncc(-c3cc(F)c(N)nc3F)n2cc1S(=O)(=O)C(C)(C)C [Example 42, 3-(6-amino-2,5-difluoropyridin-3-yl)-6-(tert-butylsulfonyl)-N,N-dimethylimidazo[1,2-a]pyridine-7-carboxamide]	> 20	55 to 80	> 20	> 1000
COc1cc2ncc(-c3cc(F)c(N)nc3F)n2cc1S(=O)(=O)c1ccnn1C [Example 77, 3,6-difluoro-5-(7-methoxy-6-((1-methyl-1H-pyrazol-5-yl)sulfonyl)imidazo[1,2-a]pyridin-3-yl)pyridin-2-amine]	> 20	> 80	> 20	> 1000
C[C@@H](O)COc1cc2ncc(-c3cc(Cl)c(N)nc3F)n2cc1S(=O)(=O)C(C)(C)C [Example 212, (R)-1-((3-(6-amino-5-chloro-2-fluoropyridin-3-yl)-6-(tert-butylsulfonyl)imidazo [1,2-a]pyridin-7-yl)oxy)propan-2-ol]	1 to 2.5	> 80	1 to 2.5	50 to 250
COc1cc2ncc(-c3cc(F)c(OC)c(NS(=O)(=O)c4cnn(CCO)c4)c3)n2cc1S(=O)(=O)C(C)(C)C [Example 227, N-(5-(6-(tert-butylsulfonyl)-7-methoxyimidazo[1,2-a]pyridin-3-yl)-3-fluoro-2-methoxyphenyl)-1-(2-hydroxyethyl)-1H-pyrazole-4-sulfonamide]	1 to 2.5	> 80	< 1	< 50
COc1cc2ncc(-c3cc(F)c(OC)c(NS(=O)(=O)CC4COC4)c3)n2cc1S(=O)(=O)C(C)(C)C [Example 160, N-(5-(6-(tert-butylsulfonyl)-7-methoxyimidazo[1,2-a]pyridin-3-yl)-3-fluoro-2-methoxyphenyl)-1-(oxetan-3-yl)methanesulfonamide]	< 1	> 80	< 1	< 50
COCC(C)(C)S(=O)(=O)c1cn2c(-c3cc(F)c(N)nc3F)cnc2cc1OC [Example 167, 3,6-difluoro-5-(7-methoxy-6-((1-methoxy-2-methylpropan-2-yl)sulfonyl)imidazo[1,2-a]pyridin-3-yl)pyridin-2-amine]	> 20	> 80	> 20	> 1000
CC(C)(C)S(=O)(=O)c1cn2c(-c3cc(F)c(N)nc3F)cnc2cc1OC[C@H]1C[C@H](O)C1 [Example 197, (1r,3r)-3-(((3-(6-amino-2,5-difluoropyridin-3-yl)-6-(tert-butylsulfonyl)imidazo [1,2-a]pyridin-7-yl)oxy)methyl) cyclobutan-1-ol]	< 1	> 80	< 1	50 to 250
